From ChEMBL document CHEMBL1201862, “PubChem BioAssay data set” (2004)
Active and inactive are the calls of the source. Cut-off read from the data, not from the text of the source, for most assays here: actives have a measured EC50 and inactives only a lower limit.

Experiments:
[1] = biological target: T1, Mannose-6-phosphate isomerase (Homo sapiens, UniProt P34949); experiment: inhibitors of human PMI, primary screen, biochemical, fluorescence intensity, coupled assay (AID 1209)
T1 sequence (P34949 whole entry): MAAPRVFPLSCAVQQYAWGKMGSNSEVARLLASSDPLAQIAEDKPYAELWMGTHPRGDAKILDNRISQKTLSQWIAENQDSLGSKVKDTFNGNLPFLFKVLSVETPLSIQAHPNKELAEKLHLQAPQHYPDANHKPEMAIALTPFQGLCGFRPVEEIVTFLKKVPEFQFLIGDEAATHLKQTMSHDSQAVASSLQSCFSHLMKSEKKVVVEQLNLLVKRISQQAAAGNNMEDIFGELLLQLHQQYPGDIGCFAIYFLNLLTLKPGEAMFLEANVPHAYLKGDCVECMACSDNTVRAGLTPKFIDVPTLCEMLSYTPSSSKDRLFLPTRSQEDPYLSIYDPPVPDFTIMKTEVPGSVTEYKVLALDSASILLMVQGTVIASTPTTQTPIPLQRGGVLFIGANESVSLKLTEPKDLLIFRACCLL

[2] = inhibitors of SNCA 5'UTR-driven reporter translation, confirmation, H4 neuroglioma cells, luminescence (AID 1988); format: functional, cell-based
[3] = cytotoxicity toward NIH3T3 fibroblasts, dose response, counter-screen, cell-based, ATP luminescence, mouse fibroblasts (AID 2010); format: functional;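 note: cells exposed to compound for about 90 hours before reading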
[4] = Luminescence Cell-Based Dose Response HTS to Identify Inhibitors of 5'UTR Stem-Loop Driven Prion Protein mRNA Translation in H4 Neuroglioblastoma Cells. [Related pubchem assays: 1827 (Project Summary), 1813 (Primary HTS)]; format: functional
[5] = inhibitors of firefly luciferase expression or activity, dose response, H4 neuroglioma cells, luminescence (AID 1990); format: functional, cell-based
[6] = inhibitors of intracellular T. cruzi replication, confirmation, NIH3T3 host cells, beta-gal luminescence (AID 2044); format: functional, cell-based;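 note: intracellular parasites grown in NIH/3T3 mouse fibroblasts as host cells; luminescent beta-galactosidase reporter signal from transgenic T. cruzi replicating inside host cells; inhibitors lower the luminescence signal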
INS1 = experiment: beta cell apoptosis inhibitors, cytokine rescue, dose response, luminescence, retest (AID 449756); format: functional, cell-based; conditions: Rattus norvegicus;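 note: cell death triggered by IL-1 beta plus TNF-alpha plus IFN-gamma mixture; protective hits raise ATP signal compared with cytokine alone wells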
[7] = Luminescence Cell-Based Dose Confirmation to Identify Activators of 5'UTR Stem-Loop Driven Alpha-Synuclein mRNA Translation in H4 Neuroglioblastoma Cells. [Related pubchem assays: 1829 (Project Summary), 1814 (Primary HTS)]; format: functional
[8] = Luminescence Cell-Based Dose Confirmation HTS to Identify Activators of 5'UTR Stem-Loop Driven Alpha-Synuclein mRNA Translation in H4 Neuroglioblastoma Cells. [Related pubchem assays: 1829 (Project Summary), 1814 (Primary HTS)]; format: functional
H4 = experiment: Luminescence Cell-Based Dose Response HTS to Identify Activators of 5'UTR Stem-Loop Driven Prion Protein mRNA Translation in H4 Neuroglioblastoma Cells. [Related pubchem assays: 1829 (Project Summary), 1814 (Primary HTS)]; format: functional; conditions: Homo sapiens
[9] = Luminescence Cell-Based Dose Response HTS to Identify Activators of Luciferase Translation or Activity in H4 […] Cells. [Related pubchem assays: 1829 (Project Summary), 1814 (Primary HTS)]; format: functional
[10] = Luminescence Cell-Based Dose Response to Identify Activators of Luciferase Translation or Activity in H4-C Neuroglioblastoma Cells. [Related pubchem assays: 1829 (Project Summary), 1814 (Primary HTS)]; format: functional
[11] = Luminescence Cell-Based Dose Response to Identify Activators of 5'UTR Stem-Loop Driven Prion Protein mRNA Translation in H4-C Neuroglioblastoma Cells. [Related pubchem assays: 1829 (Project Summary), 1814 (Primary HTS)]; format: functional
[12] = biological target: T1, Mannose-6-phosphate isomerase; experiment: human PMI inhibitors, high substrate, primary screen, biochemical, fluorescence intensity, high mannose 6-phosphate (AID 1220)
[13] = Artemis endonuclease inhibitor potency, dose response, biochemical, fluorescence intensity (AID 720701); format: functional;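 note: Artemis endonuclease enzyme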
Streptococcus = experiment: Group A Streptococcus viability loss, dose response, counter-screen for streptokinase expression inhibitor project, luminescence, BacTiterGlo (AID 1915); format: functional, organism-based;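 note: potency for reduction of bacterial viability or growth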
[14] = tested on: Streptococcus sp. 'group A'; experiment: growth inhibition of control SK(-) GAS strain, dose response, counter-screen for streptokinase expression inhibitor project, luminescence, kanamycin, BacTiterGlo, confirmation (AID 1900); format: functional, organism-based
Streptokinase A = biological target: T2, Streptokinase A (Streptococcus pyogenes serotype M1, UniProt P10520); experiment: S. pyogenes streptokinase expression inhibitors, potency, dose response, plasminogen activation absorbance, OD405 (AID 1914); format: functional, Streptococcus pyogenes M1 GAS;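 note: secreted streptokinase activity via plasminogen activation per viability signal from cell pellet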
T2 sequence (P10520 whole entry): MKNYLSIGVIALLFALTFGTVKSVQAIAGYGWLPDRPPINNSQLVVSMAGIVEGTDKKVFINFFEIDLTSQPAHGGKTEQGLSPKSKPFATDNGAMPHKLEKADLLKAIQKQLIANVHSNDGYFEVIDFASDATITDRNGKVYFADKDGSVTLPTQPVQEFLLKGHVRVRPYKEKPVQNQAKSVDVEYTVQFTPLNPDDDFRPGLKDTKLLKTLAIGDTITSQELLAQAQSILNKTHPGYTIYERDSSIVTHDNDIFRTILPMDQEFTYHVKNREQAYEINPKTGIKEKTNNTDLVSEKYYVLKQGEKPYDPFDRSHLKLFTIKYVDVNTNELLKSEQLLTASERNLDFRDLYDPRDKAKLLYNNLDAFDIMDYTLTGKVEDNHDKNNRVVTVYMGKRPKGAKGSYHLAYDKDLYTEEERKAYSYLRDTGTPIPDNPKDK

Estrogen receptor = biological target: T3, Estrogen receptor (Homo sapiens, UniProt P03372);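 note: potency for inhibiting coactivator peptide recruitment to the receptor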
T3 sequence (P03372 whole entry): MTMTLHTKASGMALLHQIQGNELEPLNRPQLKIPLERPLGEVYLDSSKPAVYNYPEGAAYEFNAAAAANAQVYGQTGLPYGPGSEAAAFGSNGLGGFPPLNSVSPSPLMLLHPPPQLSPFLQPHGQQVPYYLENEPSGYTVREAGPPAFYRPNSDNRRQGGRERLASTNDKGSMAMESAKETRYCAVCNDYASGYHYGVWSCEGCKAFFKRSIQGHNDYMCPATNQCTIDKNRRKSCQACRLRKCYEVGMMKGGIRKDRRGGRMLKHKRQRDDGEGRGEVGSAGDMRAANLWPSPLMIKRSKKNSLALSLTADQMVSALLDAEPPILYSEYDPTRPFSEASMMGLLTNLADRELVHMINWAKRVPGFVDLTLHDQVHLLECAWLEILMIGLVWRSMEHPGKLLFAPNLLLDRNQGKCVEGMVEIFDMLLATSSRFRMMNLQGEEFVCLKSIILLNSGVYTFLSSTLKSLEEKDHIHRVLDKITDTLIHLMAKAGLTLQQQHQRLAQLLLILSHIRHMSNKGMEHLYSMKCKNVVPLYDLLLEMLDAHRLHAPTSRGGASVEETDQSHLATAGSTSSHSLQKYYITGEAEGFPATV

Estrogen receptor beta = Estrogen receptor beta (Homo sapiens, UniProt Q92731); experiment: ERβ–SRC-3 coactivator interaction inhibitors, confirmation, orthogonal assay, biochemical, ELISA, streptavidin-HRP readout (AID 1060)
Estrogen receptor beta, sequence (Q92731 whole entry): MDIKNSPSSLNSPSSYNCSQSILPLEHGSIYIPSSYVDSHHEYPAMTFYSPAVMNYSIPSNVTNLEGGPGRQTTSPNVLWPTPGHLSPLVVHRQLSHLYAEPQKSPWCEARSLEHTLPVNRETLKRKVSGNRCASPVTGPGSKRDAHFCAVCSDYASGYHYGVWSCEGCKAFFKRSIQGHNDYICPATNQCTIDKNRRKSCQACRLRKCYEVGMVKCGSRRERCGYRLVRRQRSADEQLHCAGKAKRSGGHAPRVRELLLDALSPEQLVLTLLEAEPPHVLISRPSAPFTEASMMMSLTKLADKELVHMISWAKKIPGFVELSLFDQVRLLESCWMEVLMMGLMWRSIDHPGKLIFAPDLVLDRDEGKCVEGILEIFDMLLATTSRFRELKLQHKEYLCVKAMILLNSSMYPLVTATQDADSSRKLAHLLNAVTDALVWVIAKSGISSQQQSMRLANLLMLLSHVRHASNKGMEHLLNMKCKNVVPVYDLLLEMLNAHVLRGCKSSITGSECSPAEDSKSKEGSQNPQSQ

[15] = biological target: Mitogen-activated protein kinase 10 (Homo sapiens, UniProt P53779); experiment: Dose response biochemical screening assay for inhibitors of c-Jun N-Terminal Kinase 3 (JNK3). [Related pubchem assays: 746 ]
Mitogen-activated protein kinase 10, sequence (P53779 whole entry): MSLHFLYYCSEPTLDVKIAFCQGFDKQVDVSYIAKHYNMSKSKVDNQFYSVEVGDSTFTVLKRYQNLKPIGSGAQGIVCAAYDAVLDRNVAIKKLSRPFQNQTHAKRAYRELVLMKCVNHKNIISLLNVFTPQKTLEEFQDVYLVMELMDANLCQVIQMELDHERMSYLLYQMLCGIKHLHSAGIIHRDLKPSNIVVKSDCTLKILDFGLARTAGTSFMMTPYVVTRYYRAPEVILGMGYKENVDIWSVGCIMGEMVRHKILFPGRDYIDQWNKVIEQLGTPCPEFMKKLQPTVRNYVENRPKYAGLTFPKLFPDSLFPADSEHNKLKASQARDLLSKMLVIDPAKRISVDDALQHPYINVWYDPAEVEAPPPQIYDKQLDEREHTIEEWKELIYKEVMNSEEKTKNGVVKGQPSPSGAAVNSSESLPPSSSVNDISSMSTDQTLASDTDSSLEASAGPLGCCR

Compound: Cc1ccc(N2C(=O)CC(Sc3nc[nH]n3)C2=O)cc1 (stereo unspecified)
- IC50 [1]: > 50 µM (not active)

Compound: O=[N+]([O-])c1ccccc1-c1cc(-c2ccccc2)cc(-c2ccccc2)[n+]1Cc1ccccc1Cl.[O-][Cl+3]([O-])([O-])[O-]
- EC50 [2]: > 120 µM (not active)
- EC50 [3]: > 60 µM (not active)
- EC50 (cells): 0.074 µM (active)
- EC50 [4]: > 120 µM (not active)
- EC50 [5]: 11.3 µM (active)
- EC50 [6]: < 0.1 µM (active)
- AC50 (INS1): 2.14 µM (active)

Compound: C#CCSc1nnc(-c2ccc(OC)cc2)o1
- EC50 [7]: 0.138 µM (active)
- EC50 [8]: 7.23 µM (active)
- EC50 (H4): > 120 µM (not active)
- EC50 [9]: < 0.1 µM (inconclusive)
- EC50 [10]: 5.49 µM (active)
- EC50 [11]: 3.33 µM (active)

Compound: C1CCC(OCCN2CCN(CCOC3CCCCC3)CC2)CC1
- EC50 [3]: > 30 µM (not active)
- EC50 (cells): 0.067 µM (active)
- EC50 [6]: < 0.1 µM (active)

Compound: Cc1cc(C)c(C(N)=O)c(Nc2cccc3ccccc23)n1
- IC50 [12]: > 50 µM (not active)
- IC50 [1]: > 50 µM (not active)
- IC50 [13]: > 20 µM (inactive)

Compound: O=C(NCCSc1ccccc1)c1ccccc1
- EC50 [7]: 0.198 µM (active)
- EC50 (H4): > 120 µM (not active)
- EC50 [9]: < 0.1 µM (inconclusive)
- EC50 [10]: 0.347 µM (active)
- EC50 [11]: 0.281 µM (active)

Compound: O=C(N/N=C/c1ccc([N+](=O)[O-])o1)c1cn(-c2ccccc2)nc1-c1ccc(F)cc1
- EC50 (Streptococcus): 2.99 µM (active)
- EC50 [3]: > 60 µM (not active)
- EC50 (cells): 0.03 µM (active)
- EC50 [14]: 0.841 µM (active)
- EC50 (Streptokinase A): > 150 µM (not active)
- EC50 [6]: < 0.1 µM (active)

Compound: CC(=O)C(C(C)=O)c1c(Cl)c(O)c(O)c2c(C(=O)c3ccccc3)coc12
- IC50 [12]: > 50 µM (not active)
- IC50 [1]: > 50 µM (not active)

Compound: N#CC1=C(N)OC2=C(CCC/C2=C/c2ccoc2)C1c1ccoc1 (stereo unspecified)
- IC50 (Estrogen receptor): 10 µM (active)
- IC50 (Estrogen receptor beta): 3.99 µM (not active)

Compound: Nc1ccc(-n2c(N)c(C(=O)NCc3ccc4c(c3)OCO4)c3nc4ccccc4nc32)cc1
- IC50 [15]: > 93.1 µM (not active)
